Data reported in the supplement of paper PMC13380429.
± gives the standard deviation of the averaged measurements.

Tests used:
Conditions in all cases: 72 h
[1] = system: Calu-3; experiment: relative viability EC50 (midpoint between 100% and the lowest measured viability); higher = less toxic
[2] = system: Vero E6; experiment: as above
[3] = system: U2OS; experiment: as above
[4] = system: HepG2; experiment: as above
[5] = system: Caco-2; experiment: as above
[6] = system: Calu-3; experiment: drug sensitivity score (DSS) for viability; higher = more toxic; extreme values may be limits of the assay
[7] = system: Vero E6; experiment: as above
[8] = system: U2OS; experiment: as above
[9] = system: HepG2; experiment: as above
[10] = system: Caco-2; experiment: as above
[11] = system: Calu-3; experiment: cell viability relative to DMSO; higher = less toxic
[12] = system: Vero E6; experiment: as above
[13] = system: U2OS; experiment: as above
[14] = system: HepG2; experiment: as above
[15] = system: Caco-2; experiment: as above

SMILES	relative viability EC50 [1] [µM]	relative viability EC50 [2] [µM]	relative viability EC50 [3] [µM]	relative viability EC50 [4] [µM]	relative viability EC50 [5] [µM]	drug sensitivity score [6]	drug sensitivity score [7]	drug sensitivity score [8]	drug sensitivity score [9]	drug sensitivity score [10]	cell viability ([11]; 1 nM) [%]	cell viability ([11]; 10 nM) [%]	cell viability ([11]; 100 nM) [%]	cell viability ([11]; 1000 nM) [%]	cell viability ([11]; 10000 nM) [%]	cell viability ([12]; 1 nM) [%]	cell viability ([12]; 10 nM) [%]	cell viability ([12]; 100 nM) [%]	cell viability ([12]; 1000 nM) [%]	cell viability ([12]; 10000 nM) [%]	cell viability ([13]; 1 nM) [%]	cell viability ([13]; 10 nM) [%]	cell viability ([13]; 100 nM) [%]	cell viability ([13]; 1000 nM) [%]	cell viability ([13]; 10000 nM) [%]	cell viability ([14]; 1 nM) [%]	cell viability ([14]; 10 nM) [%]	cell viability ([14]; 100 nM) [%]	cell viability ([14]; 1000 nM) [%]	cell viability ([14]; 10000 nM) [%]	cell viability ([15]; 1 nM) [%]	cell viability ([15]; 10 nM) [%]	cell viability ([15]; 100 nM) [%]	cell viability ([15]; 1000 nM) [%]	cell viability ([15]; 10000 nM) [%]
CN1C(=O)N[C@H](Cc2c[nH]c3c(Cl)cccc23)C1=O [necrostatin-2]	> 10	> 10	> 10	> 10	> 10	0	0	0	0	0	97.1	110	93.9	96.9	90.4	104	102	103	99.1	97.8	103	109	105	107	95.1	112	99.3	95.3	91.3	108	99	112	99.4	108	102
C[C@]12CC[C@@H]3c4ccc(OC(=O)N(CCCl)CCCl)cc4CC[C@H]3[C@@H]1CC[C@@H]2OP(=O)(O)O [estramustine-phosphate]	> 10	> 10	> 10	> 10	> 10	0	0	0	0	0	99	105	90.2	99.9	116	95.1	103	94.9	107	92.8	102	100	98.7	97.3	99.1	98.3	90.8	101	95.4	104	115	89.9	92.2	94.3	94.9
CC#CCC(C)[C@H](O)/C=C/[C@@H]1[C@H]2C/C(=C/CCCC(=O)O)C[C@H]2C[C@H]1O (stereo not given in full) [iloprost]	> 10	> 10	> 10	> 10	> 10	0	0	0	0	0	99.3	96.8	85	91.5	103	96.2	101	97	98.8	99.3	96	101	93.3	98.4	94	97.8	90.6	106	97.1	98.2	92.2	105	100	95.2	105
N[C@@H](C(=O)O)c1cc(O)cc(O)c1 [dihydroxyphenylglycine]	> 10	> 10	> 10	> 10	> 10	0	0	0	0	0	104 ± 5.4	90.5 ± 9.7	102 ± 1.1	102 ± 6.4	105 ± 9.4	99.4 ± 5.7	97.5 ± 7	98.5 ± 1.9	99.6 ± 5.4	95.8 ± 4.7	102.7 ± 0.85	97.2 ± 2.8	103	98.8 ± 0.42	101 ± 2	95.8 ± 10	92 ± 9.4	87.9 ± 4.8	98.2 ± 2.4	102 ± 8.4	102 ± 3.8	94.9 ± 1.1	92.4 ± 7.5	90.8 ± 4.5	103 ± 5
CCOc1ccccc1C(N)=O [ethenzamide]	> 10	> 10	> 10	> 10	> 10	0	0	0	0	0	95.3	101	99.5	98.1	103	104	98.1	101	92.6	97.3	106	97.9	100	98.2	100	101	94.9	95.4	102	91.2	100	97	97.6	98.9	103
c1ccc(Cn2c(-c3ccc(OC[C@H](C4CCNCC4)n4c(-c5ccccc5)nc5ccccc54)cc3)nc3ccccc32)cc1 [deltarasin]	3.51	2.8	3.14	3.62	2.85	5.1	6.2	5.6	4.9	6	105	102	102	107	0.1	92.9	99.3	94	95.4	-0.1	99.9	93.9	98.7	99.9	-0.3	99.7	100	95	110	-0.3	98.6	87.8	104	95.9	2.1
